What all share (type): in vivo
Experiment [1] deals with Agrostis tenuis. Nature of the experiment: Herbicidal early post-emergence action (96-well microtiter plates), AGSTE. Particulars: 1900 g/ha, scored 9 to 12 days after treatment, 100% = plants have died, 0% = like untreated control plants. The text has this:
(§1) In the examples and tables below, the following abbreviations are used: • Undesired Plants/Weeds: • ABUTH: Abutilon theophrasti • AGSTE: Agrostis tenuis • AMARE Amaranthus retroflexus • ECHCG: Echinochloa crus-galli • LOLRI: Lolium rigidum • MATIN: Matricaria inodora • POAAN: Poa annua • SETVI: Setaria viridis • STEME: Stellaria media A. Herbicidal Early Post-Emergence Action Seeds of monocotyledonous and dicotyledonous weed plants were placed in 96-well microtiter plates in quartz sand and grown in a climatized chamber under controlled growth conditions. 5 to 7 days after sowing, the test plants were treated at the cotyledon stage. The compounds according to the invention, formulated in the form of emulsion concentrates (EC), were applied with a water application rate of the equivalent of 2200 liters per hectare. After the test plants had been left to stand in the climatized chamber for 9 to 12 days under optimum growth conditions, the effect of the preparations was scored visually in comparison to untreated controls. Here, for example, 100% activity=the plants have died, 0% activity=like untreated control plants. Tables A1 to A2 below show the effects of selected compounds of the general formula (I) according to Table 1 above on various harmful plants and an application rate corresponding to 1900 g/ha, which were obtained by the experimental procedure mentioned above.

For experiment [2], the system named is Poa annua. Nature of the experiment: Herbicidal early post-emergence action (96-well microtiter plates), POAAN. The note with it: 1900 g/ha, scored 9 to 12 days after treatment, 100% = plants have died, 0% = like untreated control plants.
Description: as §1

The subject of experiment [3] is Poa annua. Put plainly: Herbicidal pre-emergence action (greenhouse pots), POAAN. The note with it: 1280 g/ha, visual scoring after about 3 weeks vs untreated controls. The text has this: (§2) In the examples and tables below, the following abbreviations are used: • Undesired Plants/Weeds: • ABUTH: Abutilon theophrasti • AGSTE: Agrostis tenuis • AMARE Amaranthus retroflexus • ECHCG: Echinochloa crus-galli • LOLRI: Lolium rigidum • MATIN: Matricaria inodora • POAAN: Poa annua • SETVI: Setaria viridis • STEME: Stellaria media A. Herbicidal Early Post-Emergence Action Seeds of mono- and dicotyledonous weed plants were placed in plastic pots in sandy loam soil (doubly sown with one species each of mono- or dicotyledonous weed plants per pot) and covered with soil. The compounds of the invention, formulated in the form of wettable powders (WP) or as emulsion concentrates (EC), were then applied onto the surface of the covering soil as aqueous suspension or emulsion with addition of 0.5% additive at a water application rate of 600 liters per hectare (converted). After the treatment, the pots were placed in a greenhouse and kept under good growth conditions for the test plants. After about 3 weeks, the effect of the preparations was scored visually in comparison with untreated controls as percentages. For example, 100% activity=the plants have died, 0% activity=like untreated control plants. Tables C1-C8 below show the effects of selected compounds of the general formula (I) according to Table 1 above on various harmful plants and an application rate corresponding to 1280 g/ha, which were obtained by the experimental procedure mentioned above.

In experiment [4] the test system is Amaranthus retroflexus. Put plainly: Herbicidal post-emergence action (greenhouse pots), AMARE. Particulars: 1280 g/ha, visual rating about 3 weeks after treatment vs untreated controls. An excerpt: In the examples and tables below, the following abbreviations are used: • Undesired Plants/Weeds: • ABUTH: Abutilon theophrasti • AGSTE: Agrostis tenuis • AMARE Amaranthus retroflexus • ECHCG: Echinochloa crus-galli • LOLRI: Lolium rigidum • MATIN: Matricaria inodora • POAAN: Poa annua • SETVI: Setaria viridis • STEME: Stellaria media A. Herbicidal Early Post-Emergence Action Seeds of mono- and dicotyledonous weed plants were placed in plastic pots in sandy loam soil (doubly sown with in each case one species of mono- or dicotyledonous weed plants per pot), covered with soil and cultivated in a greenhouse under controlled growth conditions. 2 to 3 weeks after sowing, the test plants were treated at the one-leaf stage. The compounds of the invention, formulated in the form of wettable powders (WP) or as emulsion concentrates (EC), were applied onto the green parts of the plants as aqueous suspension or emulsion with addition of 0.5% additive at a water application rate of 600 liters per hectare (converted). After the test plants had been kept in the greenhouse under optimum growth conditions for about 3 weeks, the activity of the preparations was rated visually in comparison to untreated controls. For example, 100% activity=the plants have died, 0% activity=like untreated control plants. Tables B1-B8 below show the effects of selected compounds of the general formula (I) according to Table 1 above on various harmful plants and an application rate corresponding to 1280 g/ha, which were obtained by the experimental procedure mentioned above.

Experiment [5] concerns Setaria viridis. Nature of the experiment: Herbicidal pre-emergence action (greenhouse pots), SETVI. The note with it: 1280 g/ha, visual scoring after about 3 weeks vs untreated controls.
Description: as §2

The subject of experiment [6] is Stellaria media. Put plainly: Herbicidal pre-emergence action (greenhouse pots), STEME. Particulars: 1280 g/ha, visual scoring after about 3 weeks vs untreated controls.
Description: as §2

The test system of experiment [7] is Amaranthus retroflexus. Put plainly: Herbicidal pre-emergence action (greenhouse pots), AMARE. Particulars: 1280 g/ha, visual scoring after about 3 weeks vs untreated controls.
Description: as §2

For the compound `Fc1ccc(Oc2c(F)cccc2Nc2ccc(Cl)cn2)cc1` [Example 1-40], in experiment [1], the “AGSTE (herbicidal activity, scored visually in comparison to untreated controls)” value (from here on “AGSTE”) amounted to 80%. The “POAAN (herbicidal activity, scored visually in comparison to untreated controls)” value in experiment [2] is 80%.
Take `Fc1ccc(Oc2c(Cl)cccc2Nc2ccc(Cl)cn2)cc1` [Example 1-75]: in experiment [1], the “AGSTE” value is 100%. The “POAAN (herbicidal activity, scored visually in comparison to untreated controls)” value in experiment [2] amounted to 80%.
Turning to `Cc1cccc(Nc2ccc(Cl)cn2)c1Oc1ccc(F)cc1` [Example 1-79], in experiment [1], the “AGSTE” value was determined as 80%. In addition, the “POAAN (herbicidal activity, scored visually in comparison to untreated controls)” value in experiment [2] is 100%. Further, in experiment [3], the “herbicidal activity POAAN” value was 100%.
Regarding `N#Cc1cccc(Nc2ccc(Cl)cn2)c1Oc1ccc(F)cc1` [Example 1-124], the “AGSTE” value in experiment [1] was found to be 100%. In experiment [2], the “POAAN (herbicidal activity, scored visually in comparison to untreated controls)” value stood at 100%. Also, in experiment [4], the “herbicidal activity AMARE” value is 100%.
Take `N#Cc1cccc(Nc2ccc(Cl)cn2)c1Oc1ccc(F)c(F)c1` [Example 1-129]: the “AGSTE” value in experiment [1] amounted to 100%. Besides, in experiment [4], the “herbicidal activity AMARE” value came out at 100%. Also, the “herbicidal activity SETVI” value in experiment [5] is 90%. The “herbicidal activity STEME” value in experiment [6] amounted to 90%.
As to `N#Cc1cccc(Nc2ccc(Br)cn2)c1Oc1ccc(F)cc1` [Example 1-143], the “AGSTE” value in experiment [1] is 80%.
Regarding `N#Cc1cccc(Nc2ccc(Br)cn2)c1Oc1ccc(F)c(F)c1` [Example 1-144], the “AGSTE” value in experiment [1] came to 100%. Besides, the “POAAN (herbicidal activity, scored visually in comparison to untreated controls)” value in experiment [2] came to 100%.
For `N#Cc1ccc(Nc2cccc(C#N)c2Oc2ccc(F)cc2)nc1` [Example 1-145], in experiment [2], the “POAAN (herbicidal activity, scored visually in comparison to untreated controls)” value came to 80%. Also, the “herbicidal activity AMARE” value in experiment [7] came out at 90%.
For the compound `N#Cc1ccc(Nc2cccc(C#N)c2Oc2ccc(F)c(F)c2)nc1` [Example 1-146], in experiment [1], the “AGSTE” value worked out at 80%.
On to `Cc1ccc(Nc2cccc(C#N)c2Oc2ccc(F)cc2)nc1` [Example 1-149], for which the “AGSTE” value in experiment [1] came to 100%. In addition, the “herbicidal activity AMARE” value in experiment [4] and in experiment [7] was 100% each time.
On to `N#Cc1cccc(Nc2ncccn2)c1Oc1ccccc1F` [Example 1-246, 2-(2-Fluorophenoxy)-3-(pyrimidin-2-ylamino)benzonitrile], for which, in experiment [1], the “AGSTE” value was 80%. Further, the “herbicidal activity AMARE” value in experiment [4] and in experiment [7] was 100% in each case. Also, in experiment [5], the “herbicidal activity SETVI” value is recorded as 100%. Moreover, in experiment [6], the “herbicidal activity STEME” value turned out to be 100%.
For the compound `N#Cc1cccc(Nc2ncccn2)c1Oc1cc(F)ccc1F` [Example 1-252], the “herbicidal activity AMARE” value in experiment [7] came to 90%.
`N#Cc1cccc(Nc2ncc(F)cn2)c1Oc1cc(F)cc(F)c1` [Example 1-273]: the “AGSTE” value in experiment [1] was determined as 80%. For the same compound, the “herbicidal activity AMARE” value in experiment [4] and in experiment [7] was 100% in each case. Besides, the “herbicidal activity SETVI” value in experiment [5] is on record as 90%.
For `COc1cccc(Oc2c(C#N)cccc2Nc2ncc(F)cn2)c1` [Example 1-281], the “AGSTE” value in experiment [1] is reported as 100%.
Turning to `N#Cc1cccc(Nc2ncc(Cl)cn2)c1Oc1ccccc1F` [Example 1-284], the “AGSTE” value in experiment [1] is recorded as 100%. Also, the “POAAN (herbicidal activity, scored visually in comparison to untreated controls)” value in experiment [2] is recorded as 100%. The “herbicidal activity AMARE” value in experiment [4] and in experiment [7] was 100% in each case. Moreover, in experiment [5], the “herbicidal activity SETVI” value is 100%. For the same compound, in experiment [6], the “herbicidal activity STEME” value was 90%.
With `N#Cc1cccc(Nc2ncc(Cl)cn2)c1Oc1cc(F)ccc1F` [Example 1-290], the “AGSTE” value in experiment [1] turned out to be 80%. Further, the “herbicidal activity AMARE” value in experiment [4] turned out to be 100%; in experiment [7], 90%. In addition, in experiment [3], the “herbicidal activity POAAN” value was 90%.
With `N#Cc1cccc(Nc2ncc(Cl)cn2)c1Oc1cc(F)cc(F)c1` [Example 1-292], the “AGSTE” value in experiment [1] is reported as 100%. In experiment [2], the “POAAN (herbicidal activity, scored visually in comparison to untreated controls)” value is 80%. In addition, the “herbicidal activity AMARE” value in experiment [4] and in experiment [7] was 100% in each case. The “herbicidal activity SETVI” value in experiment [5] amounted to 90%.
As to `N#Cc1cccc(Nc2ncc(Cl)cn2)c1Oc1cccc(C(F)(F)F)c1` [Example 1-297], in experiment [1], the “AGSTE” value is 100%. Moreover, the “POAAN (herbicidal activity, scored visually in comparison to untreated controls)” value in experiment [2] turned out to be 80%. In addition, the “herbicidal activity AMARE” value in experiment [4] is 100%. The “herbicidal activity SETVI” value in experiment [5] is recorded as 100%.
Consider `COc1cccc(Nc2ncc(Cl)cn2)c1Oc1ccc(F)cc1` [Example 1-324], for which the “AGSTE” value in experiment [1] was 100%. Moreover, the “POAAN (herbicidal activity, scored visually in comparison to untreated controls)” value in experiment [2] amounted to 80%.
The corresponding values for `CSc1cccc(Nc2ncc(Cl)cn2)c1Oc1ccc(F)cc1` [Example 1-328] are 80% and 80%.
As to `Clc1ccc(Oc2c(Cl)cccc2Nc2ncc(Cl)cn2)cc1` [Example 1-341], the “AGSTE” value in experiment [1] turned out to be 100%. Besides, the “POAAN (herbicidal activity, scored visually in comparison to untreated controls)” value in experiment [2] came to 100%. The “herbicidal activity AMARE” value in experiment [4] came out at 100%. For the same compound, the “herbicidal activity STEME” value in experiment [6] was 90%.
Take `CC(C)Oc1ccc(Nc2cccc(C#N)c2Oc2ccc(F)cc2)nc1` [Example 1-342]: the “herbicidal activity AMARE” value in experiment [4] and in experiment [7] was 100% in each case. The “herbicidal activity SETVI” value in experiment [5] is on record as 100%.
For `Fc1ccc(Oc2c(Br)cccc2Nc2ncc(Cl)cn2)cc1` [Example 1-358], the “AGSTE” value in experiment [1] is given as 100%. The “POAAN (herbicidal activity, scored visually in comparison to untreated controls)” value in experiment [2] came to 100%.
Consider `CNc1cccc(Nc2ncc(Cl)cn2)c1Oc1ccc(F)cc1` [Example 1-365], for which, in experiment [1], the “AGSTE” value was 100%.
For the compound `CN(C)c1cccc(Nc2ncc(Cl)cn2)c1Oc1ccc(F)cc1` [Example 1-366], the “AGSTE” value in experiment [1] amounted to 100%. Further, in experiment [2], the “POAAN (herbicidal activity, scored visually in comparison to untreated controls)” value came out at 80%.
The corresponding values for `CCSc1cccc(Nc2ncc(Cl)cn2)c1Oc1ccc(F)cc1` [Example 1-376] are 80% and 80%.
The matching figures for `Nc1c([N+](=O)[O-])cc(Nc2ncc(Cl)cn2)c(Oc2ccc(F)cc2)c1Cl` [Example 2-101, 2-Chloro-4-(5-chloropyrimidin-2-ylamino)-3-(4-fluorophenoxy)-6-nitroaniline]: 100% and 80%.
